Experimental data reported in ChEMBL document CHEMBL2396621, “Design, synthesis and biological evaluation of 2-mercapto-3-phenethylquinazoline bearing anilide fragments as potential antitumor agents: molecular docking study” (2013).

How the values were obtained:
Format in all cases: functional
BT-549 = assay: Cytotoxicity against human BT549 cells assessed as growth inhibition at 10 uM after 48 hrs by coulter counter analysis; settings: BT-549, 48 h, read-out: GI
OVCAR-4 = assay: Cytotoxicity against human OVCAR4 cells assessed as growth inhibition at 10 uM after 48 hrs by coulter counter analysis; settings: OVCAR-4, 48 h, read-out: GI
NCI-H23 = assay: Cytotoxicity against human NCI-H23 cells assessed as growth inhibition at 10 uM after 48 hrs by coulter counter analysis; settings: NCI-H23, 48 h, read-out: GI
HOP-62 = assay: Cytotoxicity against human HOP62 cells assessed as growth inhibition at 10 uM after 48 hrs by coulter counter analysis; settings: HOP-62, 48 h, read-out: GI
SF-295 = assay: Cytotoxicity against human SF295 cells assessed as growth inhibition at 10 uM after 48 hrs by coulter counter analysis; settings: SF-295, 48 h, read-out: GI
SK-OV-3 = assay: Cytotoxicity against human SKOV3 cells assessed as growth inhibition at 10 uM after 48 hrs by coulter counter analysis; settings: SK-OV-3, 48 h, read-out: GI
SK-MEL-5 = assay: Cytotoxicity against human SK-MEL-5 cells assessed as growth inhibition at 10 uM after 48 hrs by coulter counter analysis; settings: SK-MEL-5, 48 h, read-out: GI
IGROV-1 = assay: Cytotoxicity against human IGROV1 cells assessed as growth inhibition at 10 uM after 48 hrs by coulter counter analysis; settings: IGROV-1, 48 h, read-out: GI
NCI-H322M = assay: Cytotoxicity against human NCI-H322M cells assessed as growth inhibition at 10 uM after 48 hrs by coulter counter analysis; settings: read-out: GI
KM12 = assay: Cytotoxicity against human KM12 cells assessed as growth inhibition at 10 uM after 48 hrs by coulter counter analysis; settings: KM12, 48 h, read-out: GI
NCI-H226 = assay: Cytotoxicity against human NCI-H226 cells assessed as growth inhibition at 10 uM after 48 hrs by coulter counter analysis; settings: NCI-H226, 48 h, read-out: GI
HT-29 = assay: Cytotoxicity against human HT-29 cells assessed as growth inhibition at 10 uM after 48 hrs by coulter counter analysis; settings: HT-29, 48 h, read-out: GI
HCT-15 = assay: Cytotoxicity against human HCT15 cells assessed as growth inhibition at 10 uM after 48 hrs by coulter counter analysis; settings: HCT-15, 48 h, read-out: GI
SF-268 = assay: Cytotoxicity against human SF268 cells assessed as growth inhibition at 10 uM after 48 hrs by coulter counter analysis; settings: SF-268, 48 h, read-out: GI
UACC-257 = assay: Cytotoxicity against human UACC257 cells assessed as growth inhibition at 10 uM after 48 hrs by coulter counter analysis; settings: UACC-257, 48 h, read-out: GI
UO-31 = assay: Cytotoxicity against human UO31 cells assessed as growth inhibition at 10 uM after 48 hrs by coulter counter analysis; settings: UO-31, 48 h, read-out: GI
SNB-75 = assay: Cytotoxicity against human SNB75 cells assessed as growth inhibition at 10 uM after 48 hrs by coulter counter analysis; settings: SNB-75, 48 h, read-out: GI
TK-10 = assay: Cytotoxicity against human TK10 cells assessed as growth inhibition at 10 uM after 48 hrs by coulter counter analysis; settings: TK-10, 48 h, read-out: GI
MDA-MB-468 = assay: Cytotoxicity against human MDA-MB-468 cells assessed as growth inhibition at 10 uM after 48 hrs by coulter counter analysis; settings: MDA-MB-468, 48 h, read-out: GI
NCI-H460 = assay: Cytotoxicity against human NCI-H460 cells assessed as growth inhibition at 10 uM after 48 hrs by coulter counter analysis; settings: NCI-H460, 48 h, read-out: GI
COLO 205 = assay: Cytotoxicity against human COLO205 cells assessed as growth inhibition at 10 uM after 48 hrs by coulter counter analysis; settings: COLO 205, 48 h, read-out: GI
MDA-MB-435 = assay: Cytotoxicity against human MDA-MB-435 cells assessed as growth inhibition at 10 uM after 48 hrs by coulter counter analysis; settings: MDA-MB-435, 48 h, read-out: GI
SNB-19 = assay: Cytotoxicity against human SNB19 cells assessed as growth inhibition at 10 uM after 48 hrs by coulter counter analysis; settings: SNB-19, 48 h, read-out: GI
A549 = assay: Cytotoxicity against human A549 cells assessed as growth inhibition at 10 uM after 48 hrs by coulter counter analysis; settings: A549, 48 h, read-out: GI
LOX IMVI = assay: Cytotoxicity against human LOXIMVI cells assessed as growth inhibition at 10 uM after 48 hrs by coulter counter analysis; settings: read-out: GI
SW-620 = assay: Cytotoxicity against human SW620 cells assessed as growth inhibition at 10 uM after 48 hrs by coulter counter analysis; settings: SW-620, 48 h, read-out: GI
OVCAR-3 = assay: Cytotoxicity against human OVCAR3 cells assessed as growth inhibition at 10 uM after 48 hrs by coulter counter analysis; settings: OVCAR-3, 48 h, read-out: GI
PC-3 = assay: Cytotoxicity against human PC3 cells assessed as growth inhibition at 10 uM after 48 hrs by coulter counter analysis; settings: PC-3, 48 h, read-out: GI
[1] = Cytotoxicity against human NCI-ADR-RES cells assessed as growth inhibition at 10 uM after 48 hrs by coulter counter analysis; settings: read-out: GI
SN12C = assay: Cytotoxicity against human SN12C cells assessed as growth inhibition at 10 uM after 48 hrs by coulter counter analysis; settings: read-out: GI
NCI-H522 = assay: Cytotoxicity against human NCI-H522 cells assessed as growth inhibition at 10 uM after 48 hrs by coulter counter analysis; settings: NCI-H522, 48 h, read-out: GI
HCC 2998 = assay: Cytotoxicity against human HCC2998 cells assessed as growth inhibition at 10 uM after 48 hrs by coulter counter analysis; settings: HCC 2998, 48 h, read-out: GI
SF-539 = assay: Cytotoxicity against human SF539 cells assessed as growth inhibition at 10 uM after 48 hrs by coulter counter analysis; settings: SF-539, 48 h, read-out: GI
DU-145 = assay: Cytotoxicity against human DU145 cells assessed as growth inhibition at 10 uM after 48 hrs by coulter counter analysis; settings: DU-145, 48 h, read-out: GI
A498 = assay: Cytotoxicity against human A498 cells assessed as growth inhibition at 10 uM after 48 hrs by coulter counter analysis; settings: A498, 48 h, read-out: GI
ACHN = assay: Cytotoxicity against human ACHN cells assessed as growth inhibition at 10 uM after 48 hrs by coulter counter analysis; settings: read-out: GI
T47D = assay: Cytotoxicity against human T47D cells assessed as growth inhibition at 10 uM after 48 hrs by coulter counter analysis; settings: read-out: GI

| Compound | inhibition of growth at 10 µM (BT-549) [%] | inhibition of growth at 10 µM (OVCAR-4) [%] | inhibition of growth at 10 µM (NCI-H23) [%] | inhibition of growth at 10 µM (HOP-62) [%] | inhibition of growth at 10 µM (SF-295) [%] | inhibition of growth at 10 µM (SK-OV-3) [%] | inhibition of growth at 10 µM (SK-MEL-5) [%] | inhibition of growth at 10 µM (IGROV-1) [%] | inhibition of growth at 10 µM (NCI-H322M) [%] | inhibition of growth at 10 µM (KM12) [%] | inhibition of growth at 10 µM (NCI-H226) [%] | inhibition of growth at 10 µM (HT-29) [%] | inhibition of growth at 10 µM (HCT-15) [%] | inhibition of growth at 10 µM (SF-268) [%] | inhibition of growth at 10 µM (UACC-257) [%] | inhibition of growth at 10 µM (UO-31) [%] | inhibition of growth at 10 µM (SNB-75) [%] | inhibition of growth at 10 µM (TK-10) [%] | inhibition of growth at 10 µM (MDA-MB-468) [%] | inhibition of growth at 10 µM (NCI-H460) [%] | also measured |
| --- | --- | --- | --- | --- | --- | --- | --- | --- | --- | --- | --- | --- | --- | --- | --- | --- | --- | --- | --- | --- | --- |
| O=C(CSc1nc2ccccc2c(=O)n1CCc1ccccc1)Nc1ccc(F)cc1 | 10 | < 10 | 12 | < 10 | 13 | 25 | 16 | 16 | 17 | < 10 | < 10 | 10 | 10 | < 10 | < 10 | 31 | < 10 | < 10 | 23 | < 10 | inhibition of growth at 10 µM (COLO 205): < 10%; inhibition of growth at 10 µM (MDA-MB-435): < 10%; inhibition of growth at 10 µM (SNB-19): < 10%; inhibition of growth at 10 µM (A549): 23%; inhibition of growth at 10 µM (LOX IMVI): 18%; inhibition of growth at 10 µM (SW-620): < 10%; inhibition of growth at 10 µM (OVCAR-3): < 10%; inhibition of growth at 10 µM (PC-3): 16%; inhibition of growth at 10 µM [1]: < 10%; inhibition of growth at 10 µM (SN12C): 19%; inhibition of growth at 10 µM (NCI-H522): 31%; inhibition of growth at 10 µM (HCC 2998): < 10%; inhibition of growth at 10 µM (SF-539): < 10%; inhibition of growth at 10 µM (DU-145): < 10%; inhibition of growth at 10 µM (A498): 10%; inhibition of growth at 10 µM (ACHN): 16%; inhibition of growth at 10 µM (T47D): 25% |
| Cc1ccc(NC(=O)CSc2nc3ccccc3c(=O)n2CCc2ccccc2)cc1 | < 10 | < 10 | < 10 | 42 | 12 | 20 | 22 | 20 | 15 | 11 | < 10 | < 10 | 10 | 19 | 17 | < 10 | 12 | < 10 | 29 | 22 | inhibition of growth at 10 µM (COLO 205): 15%; inhibition of growth at 10 µM (MDA-MB-435): 17%; inhibition of growth at 10 µM (SNB-19): 22%; inhibition of growth at 10 µM (A549): 21%; inhibition of growth at 10 µM (LOX IMVI): 14%; inhibition of growth at 10 µM (SW-620): 10%; inhibition of growth at 10 µM (OVCAR-3): < 10%; inhibition of growth at 10 µM (PC-3): 14%; inhibition of growth at 10 µM [1]: < 10%; inhibition of growth at 10 µM (SN12C): < 10%; inhibition of growth at 10 µM (NCI-H522): 22%; inhibition of growth at 10 µM (HCC 2998): < 10%; inhibition of growth at 10 µM (SF-539): 19%; inhibition of growth at 10 µM (DU-145): < 10%; inhibition of growth at 10 µM (A498): < 10%; inhibition of growth at 10 µM (ACHN): 21%; inhibition of growth at 10 µM (T47D): 44% |
| COc1ccc(NC(=O)CSc2nc3ccccc3c(=O)n2CCc2ccccc2)cc1 | 10 | < 10 | < 10 | 52 | 21 | 25 | 10 | 18 | 19 | 16 | < 10 | < 10 | < 10 | 47 | 14 | < 10 | 72 | 10 | 13 | 25 | inhibition of growth at 10 µM (COLO 205): < 10%; inhibition of growth at 10 µM (MDA-MB-435): 10%; inhibition of growth at 10 µM (SNB-19): 41%; inhibition of growth at 10 µM (A549): 25%; inhibition of growth at 10 µM (LOX IMVI): < 10%; inhibition of growth at 10 µM (SW-620): 11%; inhibition of growth at 10 µM (OVCAR-3): 10%; inhibition of growth at 10 µM (PC-3): < 10%; inhibition of growth at 10 µM [1]: 15%; inhibition of growth at 10 µM (SN12C): < 10%; inhibition of growth at 10 µM (NCI-H522): < 10%; inhibition of growth at 10 µM (HCC 2998): < 10%; inhibition of growth at 10 µM (SF-539): 10%; inhibition of growth at 10 µM (DU-145): < 10%; inhibition of growth at 10 µM (A498): < 10%; inhibition of growth at 10 µM (ACHN): < 10%; inhibition of growth at 10 µM (T47D): < 10% |
